Data reported in patent publication US20030022251A1, “Gamma-secretase in vitro screening assay” (Boehringer Ingelheim Pharma KG, priority 2001, published 2003).
Entries after “also recorded” stand apart in the source; their conditions may differ.

Experiments:
γ-secretase [1] = biological target: T1, γ-secretase (Homo sapiens, UniProt P49768); assay: Analysis of CTFγ and βAPP CTFs in membrane fractions of inhibitor-treated HEK 293 cells stably transfected with swAPP (immunoprecipitation/immunoblotting with antibody 6687); assay type: cell-based; settings: increasing concentrations of DAPT for 4 h
T1 construct: HEK 293 cells stably transfected with swAPP were treated with the indicated concentrations of DAPT for 4 h; endogenous in cells; host or cells: HEK 293 cells stably transfected with swAPP695 (only the substrate is transfected; the γ-secretase is the cells' own)
Procedure: FIG. 1: Identification of in vivo produced CTFγ in human cells and mouse brain according to Example 1: (A) Membrane fractions of HEK 293 cells stably transfected with Swedish mutant βAPP695 (swAPP) were analyzed by combined immunoprecipitation/immunoblotting with antibody 6687 to the C-terminus of βAPP. Three βAPP CTFs were detected (C99 (=CTFβ), C83 (=CTFα), and the approximately 6 kDa CTFγ). The same βAPP CTFs including the approximately 6 kDa CTFγ were also observed by immunoblotting with antibody 6687 in mouse brain. (B) The γ-secretase inhibitor DAPT inhibits CTFγ production. HEK 293 cells stably transfected with swAPP were treated with the indicated concentrations of DAPT for 4 h. Upper and middle panel: Membrane fractions were prepared and analyzed for βAPP CTFs by combined immunoprecipitation/immunoblotting with antibody 6687. […] Lower panel: Conditioned media were analyzed for secreted Aβ by combined immunoprecipitation/immunoblotting with antibodies 3926/6E10. […] (C) CTFγ production is dependent on biologically active presenilins. Membrane fractions from control cells expressing PS1 wt or cells stably expressing PS1 D385N were analyzed by combined immunoprecipitation/immunoblotting with antibody 6687. […]
CTFγ was analyzed by combined immunoprecipitation/westernblotting with antibody 6687 of membrane extracts from stably transfected HEK 293 cells or from mouse brain. […]

γ-secretase [2] = biological target: T1, γ-secretase; assay: Analysis of secreted Aβ in conditioned media of HEK 293 swAPP cells (immunoprecipitation/immunoblotting with antibodies 3926/6E10); assay type: cell-based; settings: DAPT for 4 h, FIG. 1B lower panel
Procedure: FIG. 1: Identification of in vivo produced CTFγ in human cells and mouse brain according to Example 1: (A) Membrane fractions of HEK 293 cells stably transfected with Swedish mutant βAPP695 (swAPP) were analyzed by combined immunoprecipitation/immunoblotting with antibody 6687 to the C-terminus of βAPP. Three βAPP CTFs were detected (C99 (=CTFβ), C83 (=CTFα), and the approximately 6 kDa CTFγ). The same βAPP CTFs including the approximately 6 kDa CTFγ were also observed by immunoblotting with antibody 6687 in mouse brain. (B) The γ-secretase inhibitor DAPT inhibits CTFγ production. HEK 293 cells stably transfected with swAPP were treated with the indicated concentrations of DAPT for 4 h. Upper and middle panel: Membrane fractions were prepared and analyzed for βAPP CTFs by combined immunoprecipitation/immunoblotting with antibody 6687. […] Lower panel: Conditioned media were analyzed for secreted Aβ by combined immunoprecipitation/immunoblotting with antibodies 3926/6E10. […] Membrane fractions from control cells expressing PS1 wt or cells stably expressing PS1 D385N were analyzed by combined immunoprecipitation/immunoblotting with antibody 6687. […]
Aβ was immunoprecipitated from conditioned media collected for 4 h with antibody 3926, separated on Tris-Tricine gels and detected by immunoblotting with antibody 6E10 using a chemiluminescent detection system (Tropix, USA).

γ-secretase [3] = assay: In vitro generation of CTFγ from membrane preparations of HEK 293 cells stably transfected with swAPP (immunoblotting with antibody 6687); assay type: biochemical, human; settings: 250 nM DAPT
Procedure: FIG. 2: In vitro generation of CTFγ according to Example 1: (A) Time dependent in vitro production of CTFγ. Membrane preparations were incubated at 37° C. for the indicated time points. The reaction mixtures were then separated in a soluble fraction (S100; lower panel) and a pellet fraction (P100; upper panel) by ultracentrifugation. These fractions were immunoblotted with antibody 6687. Note the selective accumulation of CTFγ in the S100(lower panel) fraction after 1-2 h incubation time. Very minor amounts of CTFγ were detected in the P100 fraction, which may be due to sticking of the highly hydrophobic CTFγ to membranes or to contamination of the P100 fraction with minor amounts of soluble proteins. (B) Two independent γ-secretase inhibitors (DAPT and “Compound 1”) inhibit the in vitro production of CTFγ. Membrane preparations were incubated with (+) or without (−) 250 nM DAPT (left panel) or 50 μM CM256 (right panel). The S100 fractions of the reaction mixtures were immunoblotted with antibody 6687. […]
CTFγ was generated in vitro from membrane preparations of HEK 293 cells stably transfected with swAPP following previously described procedures (McLendon et al., 2000; Pinnix et al., 2001). […] Following SDS-PAGE on 10-20% Tris-Tricine gels (Invitrogen) samples were analyzed for CTFγ by immunoblotting with antibody 6687.

## C[C@H](NC(=O)Cc1cc(F)cc(F)c1)C(=O)N[C@H](C(=O)OC(C)(C)C)c1ccccc1 [DAPT, N-[N-(3,5-difluorophenacetyl)-L-alanyl]-S-phenylglycin t-butyl ester]
γ-secretase [1]; FIG. 1B middle panel
  CTFγ generation: significant block of CTFγ generation; also recorded: dose dependent inhibition of CTFγ generation
γ-secretase [1]; FIG. 1B upper panel
  CTFβ and CTFα levels: build up of CTFβ and CTFα; also recorded: increase of βAPP CTFβ and CTFα
γ-secretase [2]
  secreted Aβ generation: dose dependent inhibition; also recorded: severely reduced Aβ production
γ-secretase [3]; membrane preparations at 37° C., S100 fraction, FIG. 2B left panel
  in vitro CTFγ generation: significantly reduce CTFγ generation; also recorded: efficiently reduced in vitro generation of CTFγ
γ-secretase [3]; membranes from cells expressing the inactive PS1 D385N mutation, FIG. 2D
  remaining in vitro CTFγ production: reduces the remaining in vitro CTFγ production; also recorded: further reduced
